14 molecules from patent US20110224133A1 (University of Southern California, priority 2008, published 2011) can be followed below.

“Also recorded” adds a separate entry of the source. Ends that are not written are not given here. Peptide text beside a SMILES is read from it. * marks the point of attachment. Cbz = O=C(OCc1ccccc1)*; CH2F = FC*

Assay [1] has as its target T1, Atg3 (Homo sapiens, UniProt Q9NT62).
T1 construct: expressed in transfected cells; host or cells: HEK293T
In words: Co-immunoprecipitation and GST pulldown with Atg3 in HEK293T cells. The conditions noted are these: HEK293T cells, 48 hr post-transfection. The format is binding. From the text: (§1) For panel A, at 48 hr post-transfection with Flag-vFLIP and/or GFP-Atg3 (left) or Flag-vFLIP and/or GST-Atg3 (middle), HEK293T cells were used for immunoprecipitation with αFlag, αGFP, or GST pulldown, followed by immunoblotting with the indicated antibodies. For panel A (right), HEK293T cells transfected with FIag-vFLIP were used for immunoprecipitation with mouse IgG or αFlag, followed by immunoblotting with αAtg3. Panel B (top) depicts a schematic diagram of human Atg3. N,N-terminus; FR, flexible region; C, C-terminus. […] Panel C (top) depicts a schematic diagram of KSHV vFLIP. […] For panel F, NIH3T3-Vector and NIH3T3-vFLIP cells were treated with 2 nM rapamycin for 12 hr and used for IP with αAtg3, followed by immunoblotting with αLC3. In panels A-F, whole cell lysates (WCLs) were used for immunoblotting with the indicated antibodies to show expression.
(§2) WCLs were used for immunoblotting with αFlag or αGST. […] WCLs were used for immunoblotting with αFlag or αGST.
(§3) The ability of FLIP to bind to Atg3 was evaluated by co-immunoprecipitation assay. HEK293T cells were transfected with Flag-vFLIP and/or GFP-Atg3 or Flag-vFLIP and/or GST-Atg3, and at 48 hr post-transfection, cells were harvested and lysed in an NP40 buffer supplemented with complete protease inhibitor cocktail (Roche). After pre-clearing with protein A/G agarose beads for 1 hr at 4° C., whole-cell lysates were used for immunoprecipitation with αFlag, αGFP, or GST. Generally, 1-4 μg of the antibody was added to 1 ml of the cell lysate and incubated at 4° C. for 8 to 12 hr. The immunoprecipitates were then washed extensively with a lysis buffer and eluted by boiling them with an SDS loading buffer for 5 min. Following immunoprecipitation, samples were treated to immunoblot using αAtg3 (1:500) (Novus).
(§4) The overall structure of yeast Atg3 has a unique hammer-like shape with the N-terminal and C-terminal regions discretely responsible for Atg7 and Atg8 (equivalent to mammalian LC3) binding, respectively. (Yamada et al. (2007) J. Biol. Chem. 282:8036-8043). Based on the structure of yeast Atg3, human Atg3 deletion mutants fused with a GST mammalian expression vector were constructed: GST-Atg31-93, GST-Atg3193-268, GST-Atg3268-315, and GST-Atg3193-315.

For assay [2], the system named is TREX-BCBL-Vector cells. In words: Cell death (BC Z2 CS analyzer) in peptide-treated TREX-BCBL cells. Particulars: identical conditions, 30 or 50 μM peptide.
Procedure: Subsequently, autophagy was quantified as means (±SD) of the combined results from three independent experiments. 2 μM rapamycin treatment was included as a control. For panels B (right), TREX-BCBL-Vector and TREX-BCBL-vFLIP cells were treated with Doxycycline for 24 hr, followed by incubation with 0, 30, or 50 μM of TAT only, the K-α2, or the K-α4 peptide (top), or TAT only, the C-α2, or the C-α4 peptide (bottom) for an additional 12 hr and a BC Z2 CS analyzer used to determine cell death (as a percentage). […] For panel G, various human lymphoma cells were treated with 0, 30, or 50 μM of the K-α2 peptide (left) or the K-α4 peptide (right) for 12 hr and cell death (as a percentage) was determined using a BC Z2 CS Analyzer. For panel H, KSHV-infected BCBL1 cells were incubated with various combinations of rapamycin (25 nM), the K-α2 peptide (20 μM), and the K-α4 peptide (20 μM). A BC Z2 CS Analyzer was used to determine cell numbers (left) and cell death at 6 days (right).
Cells treated with 2 μM rapamycin treatment were included as controls. For panel C, KSHV-infected BCBL1 cells were treated with TAT only, K-α2, K-α2m, K-α4, or K-α4m (30 or 50 μM) for 24 hr. A BC Z2 CS Analyzer was used to determine cell death (as a percentage).
For assay [3], the system named is TREX-BCBL-Vector cells. In words: GFP-LC3 puncta autophagy assay in peptide-treated TREX-BCBL cells. Particulars: 30 or 50 μM peptide, 12 hr, 2 μM rapamycin as comparison.
A further assay relates to Beclin1. In words: Beclin1 siRNA knockdown in BCBL1 cells. Format: cell-based, human. An excerpt:
For panel B, BCBL1 cells were transfected with control siRNA or Beclin1 siRNA and treated with or without rapamycin for 5 days.

Assay [4] concerns KSHV-infected BCBL1 cells. In words: Rapamycin-induced growth suppression and death of BCBL1 cells (cell counts, scanning EM). The conditions noted are these: 6 days, over 100 dead cells examined. Format: cell-based, human. The method, then: The effect of vFLIP on autophagy was tested in a KSHV-infected BCBL1 cell line.
The next assay deals with BCBL1 cells. Particulars: 50 μM zVAD.
Another assay relates to mTor kinase activity. In words: Immunoblot of p70S6K and S6 phosphorylation in BCBL1 cells. Format: cell-based, human. The conditions noted are these: 12 hr, 2 μM rapamycin or 30 μM peptide. The method, then:
WCLs were used for immunoblotting with αp70S6K, αphospho-specific p70S6K, αphospho-specific S6, or αactin. […] WCLs were used for immunoblotting with αFlag or αGST.
Levels of phosphorylation of p70S6K and ribosomal protein S6 in BCBL1 cells were evaluated by immunoblotting with α-p70S6K, αphospho-specific p70S6K, αphospho-specific S6, or αactin.
A general note: Immunoblotting shows a protein as a band on a membrane.

The test system of assay [5] is LC3-II. In words: Immunoblotting with αLC3 of peptide-treated BCBL1 cells. Particulars: 30 μM each, 12 hr.
Procedure: For panel E, TREX-BCBL-Vector and TREX-BCBL-vFLIP cells were treated with the K-α and the K-α4 (30 μM each) peptide for 12 hr, followed by immunoblotting with αLC3 and αactin.
The K-α2 and K-α4 peptides contained KSHV vFLIP aa20-29 and aa128-139 regions, respectively, as retro-inverso versions to circumvent the proteolytic degradation (FIG. 10 and FIG. 11A). […] Peptide-treated TREX-BCBL-Vector and TREX-BCBL-vFLIP cells were subjected to immunoblotting with αLC3 and αactin.
For assay [6], the target named is T2, GST-Atg3 (human Atg3, full length) (human, UniProt Q9NT62 1-314).
T2 construct: also called GST-tagged hATG3; full-length Atg3; not shown: N-terminal GST tag
In words: GST pulldown from HEK293T cells, immunoblot αFlag.

Assay [7] addresses T3, GST-Atg3 193-315 (C-terminal region) (human, UniProt Q9NT62 193-314).
T3 construct: range 193-315; also called GST-Atg3 C-terminal region (Ct); not shown: N-terminal GST tag
In words: GST pulldown with GST-Atg3, Nt and Ct, immunoblot αFlag.

The subject of assay [8] is Atg3. In words: Co-immunoprecipitation and GST pulldown with Atg3 in HEK293T cells. The conditions noted are these: GST-Atg3 deletion mutants, GST pulldown. The format is binding, human.
Source text: as §1, §2, §3, §4

Assay [9] concerns LC3-II. In words: Anti-LC3 immunoblotting of starved NIH3T3 cells expressing FLIP. The format is cell-based, murine. Particulars: starvation, Hank's solution 4 hr. As for the experimental part: The arrows indicate autophagosomes.
During autophagy, an LC3 precursor (LC3-I) undergoes cleavage and lipidation to yield its processed form (LC3-II) (Mizushima et al. (2008) Nature 451:1069-1075). Immunoblotting was performed with an antibody against LC3 to further measure autophagic activity. […] Polypeptides were resolved by SDS-polyacrylamide gel electrophoresis (PAGE) and transferred to a PVDF membrane (Bio-Rad). […] The proteins were visualized by a chemiluminescence reagent (Pierce) and detected by a Fuji Phosphor Imager. […] Finally, the ability of FLIP to block autophagy in multiple cell types was evaluated.

For another assay, the system named is NIH3T3 cells. In words: GFP-LC3 autophagy assay in NIH3T3 cells expressing FLIP. The format is cell-based, murine. The conditions noted are these: ectopic expression in NIH3T3 cells; Hank's solution 4 hr or 2 μM rapamycin 3 hr.

T1 sequence (Q9NT62 whole entry): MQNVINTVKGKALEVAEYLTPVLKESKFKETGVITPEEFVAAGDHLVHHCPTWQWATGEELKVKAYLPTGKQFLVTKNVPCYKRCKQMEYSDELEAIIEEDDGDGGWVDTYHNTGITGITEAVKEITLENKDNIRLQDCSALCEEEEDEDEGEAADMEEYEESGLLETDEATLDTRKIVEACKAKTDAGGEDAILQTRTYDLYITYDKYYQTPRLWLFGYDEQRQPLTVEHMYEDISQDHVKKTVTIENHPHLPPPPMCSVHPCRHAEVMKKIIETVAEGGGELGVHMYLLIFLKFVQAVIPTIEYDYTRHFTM
T2 sequence (Q9NT62 whole entry): as above
T3 sequence (Q9NT62 193-314 limits assumed): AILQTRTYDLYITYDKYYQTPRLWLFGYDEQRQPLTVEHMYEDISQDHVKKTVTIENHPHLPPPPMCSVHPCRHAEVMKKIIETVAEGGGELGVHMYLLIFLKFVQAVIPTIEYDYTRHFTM

“EVVLFLLNVF (also: GST fusion; UniProt F5HEZ4 20-29, looked up, fragment) [DED1 α2 helix, α2 region of KSHV vFLIP amino acids 20-29; tested as mammalian GST fusion]”: in the assay with Atg3 [1], the Atg3 binding result is given as “individually sufficient for Atg3 binding”.

For the molecule RRRQRRKKRGY-G-NEMCAAAHAATQ [K-α4m], the “cell death (in words)” value in the assay with TREX-BCBL-Vector cells [2] is recorded as “no increase in autophagy nor cell death”. For the same molecule, in the assay with TREX-BCBL-Vector cells [3], the “autophagy induction (GFP-LC3 puncta)” value is given as “no increase in autophagy”.

Regarding “5′AAGAUCCUGGACCGUGUCACC3′ [Beclin1 siRNA]”, the “endogenous Beclin1 expression” value in the assay on Beclin1 is listed as “significantly reduced endogenous Beclin1 expression”. Further, the rapamycin-induced autophagic death entry with Beclin1 (rapamycin, day 5) is recorded as “attenuated rapamycin-induced autophagic death”.

RRRQRRKKRGY-G-FVNLAAAVVE [K-α2m]: the “cell death (in words)” value in the assay with TREX-BCBL-Vector cells [2] is “no increase in autophagy nor cell death”. Further, the “autophagy induction (GFP-LC3 puncta)” value in the assay with TREX-BCBL-Vector cells [3] was “no increase in autophagy”.

In the case of “RRRQRRKKRGY-G (RRRQRRKKRGYG) [HIV-1 TAT, reference compound]”, the “cell death (in words)” value with TREX-BCBL-Vector cells [2] is listed as “no increase in autophagy nor cell death”. For the same molecule, in the assay with TREX-BCBL-Vector cells [3], the “autophagy induction (GFP-LC3 puncta)” value is on record as “no increase in autophagy”.

For `CO[C@H]1C[C@@H]2CC[C@@H](C)[C@@](O)(O2)C(=O)C(=O)N2CCCC[C@H]2C(=O)O[C@H]([C@H](C)C[C@@H]2CC[C@@H](O)[C@H](OC)C2)CC(=O)[C@H](C)/C=C(\C)[C@@H](O)[C@@H](OC)C(=O)[C@H](C)C[C@H](C)/C=C/C=C/C=C/1C` [rapamycin], the “dead cells with characteristics of autophagic death (EM)” value in assay [4] is recorded as “approximately 60%”.

In the case of `COC(=O)CC(NC(=O)C(C)NC(=O)C(NC(=O)OCc1ccccc1)C(C)C)C(=O)CF` (stereo not drawn) [zVAD, benzyloxycarbonylvalyl-alanyl-aspartic acid (O-methyl)-fluoro-methylketone] (Cbz-Val-Ala-Asp(OMe)-CH2F; configuration not given here), the “growth suppression and death” value with BCBL1 cells is “effectively induced growth suppression and death of BCBL1 cells”.

With “RRRQRRKKRGY-G-NEMCYVWHLFTQ (RRRQRRKKRGYGNEMCYVWHLFTQ; not fully specified (some residues); also: retro-inverso D-amino acids) [K-α4]”, in the assay with mTor kinase activity, the “phosphorylation of p70S6K” value is “marginal reduction” and the “phosphorylation of ribosomal protein S6” value is “remained unaffected”. Further, in the assay on LC3-II [5], the LC3-II level entry is recorded as “high amount of LC3-II”.

QTFLHWVYCMEN [DED2 α4 helix]: the Atg3 binding result in the assay with Atg3 [1] is on record as “individually sufficient for Atg3 binding”.

Regarding “RRRQRRKKRGY-G-FVNLLFLVVE (RRRQRRKKRGYGFVNLLFLVVE; not fully specified (some residues); also: retro-inverso D-amino acids) [K-α2]”, in the assay on mTor kinase activity, the “phosphorylation of p70S6K” value was “marginal reduction” and the “phosphorylation of ribosomal protein S6” value was “remained unaffected”. Moreover, the LC3-II level entry with LC3-II [5] is given as “high amount of LC3-II”.

B1: Flag-KSHV vFLIP DED1 (other)
chain: MATYEVLCEVARKLGTDDREVVLFLLNVFIPQPTLAQLIGALRALKEEGRLTFPLLAECLFRAGRRDLLRDLLHLDPRFLERHLAGTMSY
notes: also called DED1 of KSHV vFLIP
Regarding B1, in assay [6], the binding result was “binds”.

B2: Flag-KSHV vFLIP DED2 (other)
chain: FSPYQLTVLHVDGELCARDIRSLIFLSKDTIGSRSTPQTFLHWVYCMENLDLLGPTDVDALMSMLRSLSRVDLQRQVQTLMGLHLSGPSHSQHYRHTP
notes: also called DED2 of KSHV vFLIP
Consider B2, for which the binding result in assay [6] is on record as “binds”.

B3: Flag-HVS vFLIP (other)
chain: MDLKTTVLHITDSFTEEEMYCLLFLINGCIPRNCNAVKISDLIIETLSKSTQWDICLTQCLYVLRKIELLLNLFQVTKEDVKQSFFTQLQLETHVLTLVNVNNNLTAKDEKRLCFILDQFFPRNVVASSVILCVFSNMLCEMPVLECLCQLKKCLKQIGRSDLAKTV
B3: the binding result in [7] and in assay [6] was “binds” throughout.

B4: HVS vFLIP: viral FLIP of Herpesvirus saimiri (protein)
chain: MDLKTTVLHITDSFTEEEMYCLLFLINGCIPRNCNAVKISDLIIETLSKSTQWDICLTQCLYVLRKIELLLNLFQVTKEDVKQSFFTQLQLETHVLTLVNVNNNLTAKDEKRLCFILDQFFPRNVVASSVILCVFSNMLCEMPVLECLCQLKKCLKQIGRSDLAKTV
modifications: Saimiriine herpesvirus 2
notes: viral FLIP of Herpesvirus saimiri
With B4, in the assay on Atg3 [8], the “Atg3 regions bound (Atg3 deletion mutants)” value was “Atg3 binding patterns similar to KSHV vFLIP”. In addition, the Atg3 binding entry with Atg3 [1] is “interacted with Atg3 as efficiently as KSHV-vFLIP”. Moreover, in the assay with LC3-II [9], the “processed LC3-II” value is “little or no processed LC3-II”. Also, the “suppression of starvation- and rapamycin-induced autophagy (GFP-LC3 puncta)” value in the assay with NIH3T3 cells was “strongly suppressed starvation- and rapamycin-induced autophagy; also recorded: had anti-autophagic activity”.
